Assay [1] addresses Gamma-secretase. Put plainly: Inhibition of beta amyloid protein 42. Format: protein-complex assay, Homo sapiens.
Assay [2] has as its target Gamma-secretase. Kind of assay: Inhibition of beta amyloid protein 40. Format: protein-complex assay, Homo sapiens.
Assay [3] concerns the target Gamma-secretase (Homo sapiens) (UniProt Q96BI3+Q9NZ42+Q8WW43+P49768+Q92542+P49810). Put plainly: Inhibition of beta amyloid protein 40 at 100 uM. Format: protein-complex assay.

pIC50: −log10 of the molar value.

Consider `O=C1CCC[C@@H](OCc2ccccc2)[C@@H]1OCc1ccccc1`, for which the pIC50 against Gamma-secretase [1] and against Gamma-secretase [2] was below 4.00 each time.
Consider `O=C1CCCN(C(=O)OCc2ccccc2)C1Cc1ccccc1` (stereo not drawn), for which the inhibition (as a rule, the percentage by which the read-out fell short of the control) in assay [3] was found to be 21%. Also, the pIC50 (commonly the negative decadic logarithm of the IC50, by convention in mol/L) at Gamma-secretase [1] is below 4.00.
With `O=C1C=CC(O)N(C(=O)OCc2ccccc2)C1Cc1ccccc1` (stereo not drawn), the results for the pIC50 at Gamma-secretase [1] and on Gamma-secretase [2] were 6.15 and 6.30, respectively.
Consider `O=C1C=CCN(S(=O)(=O)c2ccccc2)C1Cc1ccccc1` (stereo not drawn), for which the pIC50 is 4.91 at Gamma-secretase [1] and 5.23 at Gamma-secretase [2].
For `COC(=O)N1CCCC(=O)C1Cc1ccccc1` (stereo not drawn), the pIC50 at Gamma-secretase [1] and against Gamma-secretase [2] was below 4.00 each time.
Consider `CO[C@@H]1CC=CC(=O)[C@H]1OCc1ccccc1`, for which the values for the pIC50 against Gamma-secretase [1] and against Gamma-secretase [2] were 4.99 and 5.16, respectively.
For `O=C(OCc1ccccc1)N1CCCC(O)C1Cc1ccccc1` (stereo not drawn), the pIC50 at Gamma-secretase [1] and against Gamma-secretase [2] was below 4.00 each time.
Turning to `CO[C@@H]1C(=O)C=CC[C@H]1OCc1ccccc1`, the pIC50 on Gamma-secretase [1] is 4.59; on Gamma-secretase [2], 4.47.
Take `CO[C@@H]1C(=O)CC(O)C[C@H]1OCc1ccccc1` (stereo partly drawn): the pIC50 at Gamma-secretase [1] and at Gamma-secretase [2] was below 4.00 throughout.
As to `O=C1C=CCN(C(=O)OCc2ccccc2)C1Cc1ccccc1` (stereo not drawn), the pIC50 at Gamma-secretase [1] was 5.13; against Gamma-secretase [2], 5.34.
For `CO[C@@H]1CCCC(=O)[C@H]1OCc1ccccc1` the same measures were 4.86 and 5.31.
For `COC(=O)N1CC=CC(=O)C1Cc1ccccc1` (stereo not drawn) the same measures were 5.01 and 5.14.
Consider `CO[C@@H]1C(=O)CCC[C@H]1OCc1ccccc1`, for which the pIC50 against Gamma-secretase [1] and at Gamma-secretase [2] was below 4.00 each time.
For `CO[C@@H]1CCCC(=O)[C@H]1O`, the pIC50 on Gamma-secretase [1] and on Gamma-secretase [2] was below 4.00 throughout.
`CO[C@@H]1CC(O)CC(=O)[C@H]1OCc1ccccc1` (stereo partly drawn): the pIC50 on Gamma-secretase [1] and against Gamma-secretase [2] was below 4.00 each time.
As to `O=C1C=CC[C@@H](OCc2ccccc2)[C@@H]1OCc1ccccc1`, the pIC50 on Gamma-secretase [1] is 5.96; against Gamma-secretase [2] it was 5.80.
On to `COC(=O)N1CCCC(O)C1Cc1ccccc1` (stereo not drawn), for which the pIC50 against Gamma-secretase [1] and against Gamma-secretase [2] was below 4.00 each time.
For the compound `O=C1C=CCN(C(=O)c2ccccc2)C1Cc1ccccc1` (stereo not drawn), the results for the pIC50 on Gamma-secretase [1] and at Gamma-secretase [2] were 5.66 and 6.00, respectively.
Consider `CO[C@@H]1C(=O)CCC[C@H]1O`, for which the pIC50 against Gamma-secretase [1] and against Gamma-secretase [2] was below 4.00 each time.

The values above are taken from ChEMBL document CHEMBL1138955, “Novel gamma-secretase inhibitors discovered by library screening of in-house synthetic natural product intermediates” (Bioorg Med Chem Lett, 2006).
